Key:
MLKL [1] = biological target: T1, MLKL (Homo sapiens, UniProt Q8NB16); assay: Measurement of binding affinity with MLKL receptor (competitive binding assay, Kd); set-up: made in house; host or cells: HEK 293 cell line (T7 phage in E. coli BL21-derived host is also described)
T1 sequence (Q8NB16 1-471): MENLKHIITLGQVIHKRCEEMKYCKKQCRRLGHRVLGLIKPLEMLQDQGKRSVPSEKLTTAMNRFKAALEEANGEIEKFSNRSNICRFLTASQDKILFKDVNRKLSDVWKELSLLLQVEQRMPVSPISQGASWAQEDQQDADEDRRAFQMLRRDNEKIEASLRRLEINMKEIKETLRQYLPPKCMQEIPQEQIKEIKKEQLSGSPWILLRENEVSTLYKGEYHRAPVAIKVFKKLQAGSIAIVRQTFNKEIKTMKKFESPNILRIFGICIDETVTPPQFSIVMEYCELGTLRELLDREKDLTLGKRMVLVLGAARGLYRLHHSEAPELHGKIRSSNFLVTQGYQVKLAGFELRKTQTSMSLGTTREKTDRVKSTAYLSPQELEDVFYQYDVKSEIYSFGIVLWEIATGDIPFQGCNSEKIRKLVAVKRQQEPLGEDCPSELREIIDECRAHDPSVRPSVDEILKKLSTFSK
Procedure, shortened: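 Competitive displacement of MLKL, expressed in HEK 293 cells and DNA-tagged for qPCR, from immobilized ligand on biotin-blocked beads. Compounds were added from 111× DMSO stocks (final DMSO 0.9%). Kinase left in the eluates was quantified by qPCR to give Kd.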

FADD−/− Jurkat cells = assay: Necroptosis inhibition assay, TNF-α-induced necroptosis (CellTiter-Glo 2.0); assay type: cell-based, human; conditions: TNF-α 15 ng/mL; for Necroptosis inhibition assay (Rescue %) 1 μM: compound 1 μM; for Necroptosis inhibition assay (Rescue %) 10 μM: compound 10 μM
Procedure, shortened: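 Necroptosis was triggered by TNF-α at 15 ng/mL final following 30 minutes of compound exposure (0.1, 1 or 10 μM final). Incubation ran 20 to 24 hours at 37° C under 5% CO2; cell ATP was then quantified by luminescence.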

MLKL [2] = biological target: T1, MLKL; assay: MLKL degradation assay in HepG2 cell line (western blot); assay type: cell-based; set-up: endogenous in cells; host or cells: HepG2 or HaCaT; conditions: cell line not given; for Degradation assay (Degradation %) 1 μM: compound 1 μM; for Degradation assay (Degradation %) 10 μM: compound 10 μM
Procedure, shortened: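 After treating HepG2 with test compounds (final 1 μM or 10 μM) for 20-24 h, we lysed cells, equalized protein by BCA and probed MLKL by overnight primary antibody at 4 °C followed by chemiluminescent detection.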

Structure (SMILES) | Kd (MLKL [1]) [nM] | Necroptosis inhibition assay (Rescue %) 1 μM (FADD−/− Jurkat cells) [%] | Necroptosis inhibition assay (Rescue %) 10 μM (FADD−/− Jurkat cells) [%] | Degradation assay (Degradation %) 1 μM (MLKL [2]) [%] | Degradation assay (Degradation %) 10 μM (MLKL [2]) [%] | Necroptosis inhibition assay (Rescue %) 1 μM (FADD−/− Jurkat cells; FADD−/− Jurkat cells) [%] | Necroptosis inhibition assay (Rescue %) 10 μM (FADD−/− Jurkat cells; FADD−/− Jurkat cells) [%]
Nc1ncc(-c2cnn(C3CCN(CC4CCN(C(=O)CNc5ccc6c(c5)C(=O)N(C5CCC(=O)NC5=O)C6=O)CC4)CC3)c2)nc1C(=O)N[C@@H](C(=O)Nc1ccc(F)cc1)c1ccccc1 (stereo partly drawn) [TDH-207, 3-amino-6-(1-(1-((1-((2-(2,6-dioxopiperidin-3-yl)-1,3-dioxoisoindolin-5-yl)glycyl)piperidin-4-yl)methyl)piperidin-4-yl)-1H-pyrazol-4-yl)-N-((R)-2-((4-fluorophenyl)amino)-2-oxo-1-phenylethyl)pyrazine-2-carboxamide] | 210 | 28.69 | 32.45 | 17.98 | 24.18 | – | –
Nc1ncc(-c2cnn(C3CCN(C(=O)CCC4CCN(C(=O)COc5cccc6c5C(=O)N(C5CCC(=O)NC5=O)C6=O)CC4)CC3)c2)nc1C(=O)O[C@@H](C(=O)Nc1ccc(F)cc1)c1ccccc1 (stereo partly drawn) [TDH-415, (R)-2-((4-fluorophenyl)amino)-2-oxo-1-phenylethyl 3-amino-6-(1-(1-(3-(1-(2-((2-(2,6-dioxopiperidin-3-yl)-1,3-dioxoisoindolin-4-yl)oxy)acetyl)piperidin-4-yl)propanoyl)piperidin-4-yl)-1H-pyrazol-4-yl)pyrazine-2-carboxylate] | 1.7 | – | – | 89.91 | 90.14 | 41.74 | 40.81
Nc1ncc(-c2cnn(C3CCN(C4CC5(CCN(CC6CCN(c7ccc8c(c7)C(=O)N(C7CCC(=O)NC7=O)C8=O)CC6)CC5)C4)CC3)c2)nc1C(=O)O[C@@H](C(=O)Nc1ccc(F)cc1)c1ccccc1 (stereo partly drawn) [TDH-472, (R)-2-((4-fluorophenyl)amino)-2-oxo-1-phenylethyl 3-amino-6-(1-(1-(7-((1-(2-(2,6-dioxopiperidin-3-yl)-1,3-dioxoisoindolin-5-yl)piperidin-4-yl)methyl)-7-azaspiro[3.5]nonan-2-yl)piperidin-4-yl)-1H-pyrazol-4-yl)pyrazine-2-carboxylate] | 1.6 | – | – | 50.63 | 69.94 | 27.45 | 1.07
Nc1ncc(-c2cnn(C3CCN(CCOC4CCN(C(=O)CCc5cccc6c5CN(C5CCC(=O)NC5=O)C6=O)CC4)CC3)c2)nc1C(=O)O[C@@H](C(=O)Nc1ccc(F)cc1)c1ccccc1 (stereo partly drawn) [TDH-387, (R)-2-((4-fluorophenyl)amino)-2-oxo-1-phenylethyl 3-amino-6-(1-(1-(2-((1-(3-(2-(2,6-dioxopiperidin-3-yl)-1-oxoisoindolin-4-yl)propanoyl)piperidin-4-yl)oxy)ethyl)piperidin-4-yl)-1H-pyrazol-4-yl)pyrazine-2-carboxylate] | 1.6 | 37.82 | 25.00 | 85.77 | 66.9 | – | –
Nc1ncc(-c2cnn(C3CCN(CCC4CCN(C(=O)c5ccc6c(c5)CN(C5CCC(=O)NC5=O)C6=O)CC4)CC3)c2)nc1C(=O)O[C@@H](C(=O)Nc1ccc(F)cc1)c1ccccc1 (stereo partly drawn) [TDH-547, (R)-2-((4-fluorophenyl)amino)-2-oxo-1-phenylethyl 3-amino-6-(1-(1-(2-(1-(2-(2,6-dioxopiperidin-3-yl)-1-oxoisoindoline-5-carbonyl)piperidin-4-yl)ethyl)piperidin-4-yl)-1H-pyrazol-4-yl)pyrazine-2-carboxylate] | 0.43 | – | – | 93.36 | 68.21 | 35.18 | 19.80
Nc1ncc(-c2cnn(C3CCN(C4CC5(CCN(CC6CCN(C(=O)C7CN(C8=CC(=O)N(C9CCC(=O)NC9=O)C8=O)C7)CC6)CC5)C4)CC3)c2)nc1C(=O)O[C@@H](C(=O)Nc1ccc(F)cc1)c1ccccc1 (stereo partly drawn) [TDH-534, (R)-2-((4-fluorophenyl)amino)-2-oxo-1-phenylethyl 3-amino-6-(1-(1-(7-((1-(1-(1-(2,6-dioxopiperidin-3-yl)-2,5-dioxo-2,5-dihydro-1H-pyrrol-3-yl)azetidine-3-carbonyl)piperidin-4-yl)methyl)-7-azaspiro[3.5]nonan-2-yl)piperidin-4-yl)-1H-pyrazol-4-yl)pyrazine-2-carboxylate] | 0.24 | – | – | 49.96 | 24.88 | 21.33 | 22.25
Nc1ncc(-c2cnn(C3CCN(CCOCCOCCOCCNC(=O)CNc4ccc5c(c4)C(=O)N(C4CCC(=O)NC4=O)C5=O)CC3)c2)nc1C(=O)O[C@@H](C(=O)Nc1ccc(F)cc1)c1ccccc1 (stereo partly drawn) [TDH-144, (R)-2-((4-fluorophenyl)amino)-2-oxo-1-phenylethyl 3-amino-6-(1-(1-(1-((2-(2,6-dioxopiperidin-3-yl)-1,3-dioxoisoindolin-5-yl)amino)-2-oxo-6,9,12-trioxa-3-azatetradecan-14-yl)piperidin-4-yl)-1H-pyrazol-4-yl)pyrazine-2-carboxylate] | 2.5 | 15.23 | 68.71 | 58.79 | 86.28 | – | –
Nc1ncc(-c2cnn(C3CCN(CCC4CCN(C(=O)C5CN(c6ccc7nnn(C8CCC(=O)NC8=O)c(=O)c7c6)C5)CC4)CC3)c2)nc1C(=O)OC(C(=O)Nc1ccc(F)cc1)c1ccccc1 (centres unmarked) [TDH-291, 2-((4-fluorophenyl)amino)-2-oxo-1-phenylethyl 3-amino-6-(1-(1-(2-(1-(1-(3-(2,6-dioxopiperidin-3-yl)-4-oxo-3,4-dihydrobenzo[d][1,2,3]triazin-6-yl)azetidine-3-carbonyl)piperidin-4-yl)ethyl)piperidin-4-yl)-1H-pyrazol-4-yl)pyrazine-2-carboxylate] | 6.7 | 87.96 | 64.92 | 70.94 | 48.11 | – | –
Nc1ncc(-c2cnn(C3CCN(C(=O)C4CCN(C(=O)CCc5cccc6c5C(=O)N(C5CCC(=O)NC5=O)C6=O)CC4)CC3)c2)nc1C(=O)O[C@@H](C(=O)Nc1ccc(F)cc1)c1ccccc1 (stereo partly drawn) [TDH-380, (R)-2-((4-fluorophenyl)amino)-2-oxo-1-phenylethyl 3-amino-6-(1-(1-(1-(3-(2-(2,6-dioxopiperidin-3-yl)-1,3-dioxoisoindolin-4-yl)propanoyl)piperidine-4-carbonyl)piperidin-4-yl)-1H-pyrazol-4-yl)pyrazine-2-carboxylate] | 1.5 | 38.37 | 35.96 | 86.88 | 95.41 | – | –
Nc1ncc(-c2ccc(N3CCN(CCOCCOCCNC(=O)C4CCN(c5ccc6c(c5)C(=O)N(C5CCC(=O)NC5=O)C6=O)CC4)CC3)nc2)nc1C(=O)OC(C(=O)Nc1ccc(F)cc1)c1ccccc1 (centres unmarked) [TDH-258, 2-((4-fluorophenyl)amino)-2-oxo-1-phenylethyl 3-amino-6-(6-(4-(2-(2-(2-(1-(2-(2,6-dioxopiperidin-3-yl)-1,3-dioxoisoindolin-5-yl)piperidine-4-carboxamido)ethoxy)ethoxy)ethyl)piperazin-1-yl)pyridin-3-yl)pyrazine-2-carboxylate] | 78 | 33.73 | 24.69 | 13.9 | 10.67 | – | –

— patent US20240252488A1 (KOREA RESEARCH INSTITUTE OF CHEMICAL TECHNOLOGY, priority 2020, published 2024)
